This test has as its target T1, Full length human recombinant HDAC6 protein (Homo sapiens, UniProt Q9UBN7).
T1 sequence (Q9UBN7 1-1215): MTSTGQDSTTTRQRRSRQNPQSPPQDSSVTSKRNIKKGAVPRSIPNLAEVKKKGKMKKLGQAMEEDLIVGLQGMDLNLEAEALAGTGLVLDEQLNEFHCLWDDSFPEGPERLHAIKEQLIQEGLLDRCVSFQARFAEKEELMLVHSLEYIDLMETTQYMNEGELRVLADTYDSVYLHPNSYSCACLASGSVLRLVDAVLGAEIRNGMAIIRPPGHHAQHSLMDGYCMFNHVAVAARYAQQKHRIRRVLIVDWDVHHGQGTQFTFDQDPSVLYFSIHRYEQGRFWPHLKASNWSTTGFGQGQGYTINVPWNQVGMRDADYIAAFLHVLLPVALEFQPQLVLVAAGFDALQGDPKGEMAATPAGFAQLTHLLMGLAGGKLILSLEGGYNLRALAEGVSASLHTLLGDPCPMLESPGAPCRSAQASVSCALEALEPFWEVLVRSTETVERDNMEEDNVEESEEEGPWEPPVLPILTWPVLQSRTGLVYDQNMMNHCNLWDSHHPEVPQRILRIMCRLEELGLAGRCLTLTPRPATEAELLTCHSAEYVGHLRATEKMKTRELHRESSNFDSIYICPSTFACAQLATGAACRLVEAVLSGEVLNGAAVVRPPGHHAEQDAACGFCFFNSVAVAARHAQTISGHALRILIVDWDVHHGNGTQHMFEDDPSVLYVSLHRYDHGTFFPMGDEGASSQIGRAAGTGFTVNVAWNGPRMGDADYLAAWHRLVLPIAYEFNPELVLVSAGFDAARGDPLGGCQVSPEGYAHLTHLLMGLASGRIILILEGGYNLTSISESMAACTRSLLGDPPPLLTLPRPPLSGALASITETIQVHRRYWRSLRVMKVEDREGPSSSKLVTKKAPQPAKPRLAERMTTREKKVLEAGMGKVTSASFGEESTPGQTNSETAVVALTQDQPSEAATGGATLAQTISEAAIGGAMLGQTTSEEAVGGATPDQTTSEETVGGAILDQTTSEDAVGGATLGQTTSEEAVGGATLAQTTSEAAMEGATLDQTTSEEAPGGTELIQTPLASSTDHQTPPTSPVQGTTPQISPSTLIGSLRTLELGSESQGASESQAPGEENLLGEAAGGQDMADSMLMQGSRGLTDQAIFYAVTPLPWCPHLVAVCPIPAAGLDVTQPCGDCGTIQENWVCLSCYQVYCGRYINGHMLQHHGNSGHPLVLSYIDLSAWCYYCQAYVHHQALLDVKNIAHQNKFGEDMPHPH
Briefly: In vitro histone deacetylase assay: enzymatic HDAC6 electrophoretic mobility shift assay. It is filed as biochemical. The following applies: 1 nM enzyme, 2 μM peptide substrate RHKK(Ac)-NH2, 25° C., 12 concentrations; read-out: Inhibitory Concentration (IC50) Values against HDAC6, Activity Range.

A value given as a limit tells only on which side of the number the result lay.

In the case of `COC(C)(C)C(=O)N1Cc2ccc(C(=O)NO)cc2OC[C@@H]1C` [(S)-N-hydroxy-4-(2-methoxy-2-methylpropanoyl)-3-methyl-2,3,4,5-tetrahydrobenzo[f][1,4]oxazepine-8-carboxamide], the IC50 is at most 100 nM.
In the case of `COCCC(C(=O)N1CCOc2cc(C(=O)NO)ccc2C1)c1ccccn1` (stereo not shown) [N-hydroxy-4-(4-methoxy-2-(pyridin-2-yl)butanoyl)-2,3,4,5-tetrahydrobenzo[f][1,4]oxazepine-8-carboxamide] it was 100 to 500 nM; in that of `O=C(NO)c1ccc2c(c1)OCCN(C(=O)C1CC13CCCNC3)C2` (stereo not shown) [N-hydroxy-4-(5-azaspiro[2.5]octane-1-carbonyl)-2,3,4,5-tetrahydrobenzo[f][1,4]oxazepine-8-carboxamide], above 500 nM.
Turning to `COc1ccc(C(=O)N2CCOc3cc(C(=O)NO)ccc3C2)cc1` [N-hydroxy-4-(4-methoxybenzoyl)-2,3,4,5-tetrahydrobenzo[f][1,4]oxazepine-8-carboxamide], the IC50 was at most 100 nM.
Turning to `C[C@H]1c2ccc(C(=O)NO)cc2OCCN1C(=O)C1(C)CCC1` [(S)-N-hydroxy-5-methyl-4-(1-methylcyclobutane-1-carbonyl)-2,3,4,5-tetrahydrobenzo[f][1,4]oxazepine-8-carboxamide], the IC50 was at most 100 nM.
In the case of `COC(C)(C(=O)N1CCOc2cc(C(=O)NO)ccc2C1)c1ccccc1` (stereo not shown) [N-hydroxy-4-(2-methoxy-2-phenylpropanoyl)-2,3,4,5-tetrahydrobenzo[f][1,4]oxazepine-8-carboxamide] it was 100 to 500 nM.
In the case of `O=C(NO)c1ccc2c(c1)OCCN(C(=O)C1OC3(CCNCC3)c3ccccc31)C2` (stereo not shown) [N-hydroxy-4-(3H-spiro[isobenzofuran-1,4′-piperidine]-3-carbonyl)-2,3,4,5-tetrahydrobenzo[f][1,4]oxazepine-8-carboxamide], the IC50 was in the range of 100 to 500 nM.
Under `CC(C)C(O)(C(=O)N1CCOc2cc(C(=O)NO)ccc2C1)c1ccccc1` (stereo not shown) [N-hydroxy-4-(2-hydroxy-3-methyl-2-phenylbutanoyl)-2,3,4,5-tetrahydrobenzo[f][1,4]oxazepine-8-carboxamide] stands above 500 nM.
With `COc1cccc(C(=O)N2CCOc3cc(C(=O)NO)ccc3C2)c1` [N-hydroxy-4-(3-methoxybenzoyl)-2,3,4,5-tetrahydrobenzo[f][1,4]oxazepine-8-carboxamide], the IC50 was 100 to 500 nM.
Regarding `O=C(NO)c1ccc2c(c1)OCCN(C(=O)[C@@H]1CCCOC1)C2` [(R)-N-hydroxy-4-(tetrahydro-2H-pyran-3-carbonyl)-2,3,4,5-tetrahydrobenzo[f][1,4]oxazepine-8-carboxamide], the IC50 was at most 100 nM.
Regarding `CC(C)(O)C(=O)N1CCOc2cc(C(=O)NO)ccc2C1` [N-hydroxy-4-(2-hydroxy-2-methylpropanoyl)-2,3,4,5-tetrahydrobenzo[f][1,4]oxazepine-8-carboxamide], the IC50 is 100 to 500 nM.
Under `C[C@@H]1c2ccc(C(=O)NO)cc2OCCN1C(=O)C1CCOCC1` [(R)-N-hydroxy-5-methyl-4-(tetrahydro-2H-pyran-4-carbonyl)-2,3,4,5-tetrahydrobenzo[f][1,4]oxazepine-8-carboxamide] stands above 500 nM; under `COc1cccc(C2(C(=O)N3CCOc4cc(C(=O)NO)ccc4C3)CC2)c1` [N-hydroxy-4-(1-(3-methoxyphenyl)cyclopropane-1-carbonyl)-2,3,4,5-tetrahydrobenzo[f][1,4]oxazepine-8-carboxamide], at most 100 nM.
For `CC(C)(C(=O)N1CCOc2cc(C(=O)NO)ccc2C1)c1ccccc1` [N-hydroxy-4-(2-methyl-2-phenylpropanoyl)-2,3,4,5-tetrahydrobenzo[f][1,4]oxazepine-8-carboxamide], the IC50 lay within 100 to 500 nM.
In the case of `C[C@@H]1c2cc(C(=O)NO)ccc2OCCN1C(=O)C1CCOCC1` [(R)-N-hydroxy-5-methyl-4-(tetrahydro-2H-pyran-4-carbonyl)-2,3,4,5-tetrahydrobenzo[f][1,4]oxazepine-7-carboxamide] it was at most 100 nM.
As for `COCC1(C(=O)N2CCOc3cc(C(=O)NO)ccc3C2)CC1` [N-hydroxy-4-(1-(methoxymethyl)cyclopropane-1-carbonyl)-2,3,4,5-tetrahydrobenzo[f][1,4]oxazepine-8-carboxamide], the IC50 is at most 100 nM.
In the case of `C[C@H]1c2ccc(C(=O)NO)cc2OCCN1C(=O)C1(C)COC1` [(S)-N-hydroxy-5-methyl-4-(3-methyloxetane-3-carbonyl)-2,3,4,5-tetrahydrobenzo[f][1,4]oxazepine-8-carboxamide], the IC50 is at most 100 nM.
For the compound `C[C@H]1COc2cc(C(=O)NO)ccc2CN1C(=O)C1CC1` [(S)-4-(cyclopropanecarbonyl)-N-hydroxy-3-methyl-2,3,4,5-tetrahydrobenzo[f][1,4]oxazepine-8-carboxamide], the IC50 is at most 100 nM.
Regarding `CC(C)(C)OC(C(=O)N1CCOc2cc(C(=O)NO)ccc2C1)c1ccccc1` (stereo not shown) [4-(2-(tert-butoxy)-2-phenylacetyl)-N-hydroxy-2,3,4,5-tetrahydrobenzo[f][1,4]oxazepine-8-carboxamide], the IC50 lay in the range of 100 to 500 nM.
In the case of `O=C(NO)c1ccc2c(c1)OCCN(C(=O)CCO)C2` [N-hydroxy-4-(3-hydroxypropanoyl)-2,3,4,5-tetrahydrobenzo[f][1,4]oxazepine-8-carboxamide] it was above 500 nM; in that of `CC(C)(C(=O)N1CCOc2cc(C(=O)NO)ccc2C1)c1ccccn1` [N-hydroxy-4-(2-methyl-2-(pyridin-2-yl)propanoyl)-2,3,4,5-tetrahydrobenzo[f][1,4]oxazepine-8-carboxamide], 100 to 500 nM; in that of `O=C(NO)c1ccc2c(c1)OCCN(C(=O)c1ccccc1)C2` [4-benzoyl-N-hydroxy-2,3,4,5-tetrahydrobenzo[f][1,4]oxazepine-8-carboxamide], at most 100 nM.
In the case of `COC1(C(=O)N2Cc3ccc(C(=O)NO)cc3OC[C@@H]2C)CCCCC1` [(S)-N-hydroxy-4-(1-methoxycyclohexane-1-carbonyl)-3-methyl-2,3,4,5-tetrahydrobenzo[f][1,4]oxazepine-8-carboxamide] it was at most 100 nM; in that of `O=C(NO)c1ccc2c(c1)OCCN(C(=O)C1CC1)C2` [4-(cyclopropanecarbonyl)-N-hydroxy-2,3,4,5-tetrahydrobenzo[f][1,4]oxazepine-8-carboxamide], 100 to 500 nM.
Consider `C[C@H]1COc2cc(C(=O)NO)ccc2CN1C(=O)C1(C)COC1` [(S)-N-hydroxy-3-methyl-4-(3-methyloxetane-3-carbonyl)-2,3,4,5-tetrahydrobenzo[f][1,4]oxazepine-8-carboxamide], for which the IC50 was at most 100 nM.
In the case of `CC(C)(C)OC(=O)N1CCC2(CC1)CC2C(=O)N1CCOc2cc(C(=O)NO)ccc2C1` (stereo not shown) [tert-butyl 1-(8-(hydroxycarbamoyl)-2,3,4,5-tetrahydrobenzo[f][1,4]oxazepine-4-carbonyl)-6-azaspiro[2.5]octane-6-carboxylate] it was 100 to 500 nM.
As for `CCC(=O)N1Cc2ccc(C(=O)NO)cc2OC[C@@H]1C` [(S)-N-hydroxy-3-methyl-4-propionyl-2,3,4,5-tetrahydrobenzo[f][1,4]oxazepine-8-carboxamide], the IC50 is at most 100 nM.
Under `CC(C)(C(=O)N1CCOc2cc(C(=O)NO)ccc2C1)C1CCCCC1` [4-(2-cyclohexyl-2-methylpropanoyl)-N-hydroxy-2,3,4,5-tetrahydrobenzo[f][1,4]oxazepine-8-carboxamide] stands 100 to 500 nM.

(Values after patent US11891365B2, “3-alkyl-4-amido-bicyclic [4,5,0] hydroxamic acids as HDAC inhibitors” (Valo Health, Inc., priority 2015, dated 2024).)
